Patent US9546164B2 (GENENTECH, INC., priority 2013, dated 2017)
Structures can show the parent of a compound that is named as a salt.

biological target: hNav1.7 (Homo sapiens (Human), UniProt Q15858); experiment: Tritiated sulfonamide competitive binding to membranes from cells expressing hNav1.7 and the β1 subunit; conditions: not given;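 also: Filter-bound radioactivity counted by liquid scintillation, nonspecific binding defined with excess unlabelled ligand, IC50 fitted to percent inhibition of specific binding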
Sequence (Q15858 other isoform, or with tags, fused parts or gaps): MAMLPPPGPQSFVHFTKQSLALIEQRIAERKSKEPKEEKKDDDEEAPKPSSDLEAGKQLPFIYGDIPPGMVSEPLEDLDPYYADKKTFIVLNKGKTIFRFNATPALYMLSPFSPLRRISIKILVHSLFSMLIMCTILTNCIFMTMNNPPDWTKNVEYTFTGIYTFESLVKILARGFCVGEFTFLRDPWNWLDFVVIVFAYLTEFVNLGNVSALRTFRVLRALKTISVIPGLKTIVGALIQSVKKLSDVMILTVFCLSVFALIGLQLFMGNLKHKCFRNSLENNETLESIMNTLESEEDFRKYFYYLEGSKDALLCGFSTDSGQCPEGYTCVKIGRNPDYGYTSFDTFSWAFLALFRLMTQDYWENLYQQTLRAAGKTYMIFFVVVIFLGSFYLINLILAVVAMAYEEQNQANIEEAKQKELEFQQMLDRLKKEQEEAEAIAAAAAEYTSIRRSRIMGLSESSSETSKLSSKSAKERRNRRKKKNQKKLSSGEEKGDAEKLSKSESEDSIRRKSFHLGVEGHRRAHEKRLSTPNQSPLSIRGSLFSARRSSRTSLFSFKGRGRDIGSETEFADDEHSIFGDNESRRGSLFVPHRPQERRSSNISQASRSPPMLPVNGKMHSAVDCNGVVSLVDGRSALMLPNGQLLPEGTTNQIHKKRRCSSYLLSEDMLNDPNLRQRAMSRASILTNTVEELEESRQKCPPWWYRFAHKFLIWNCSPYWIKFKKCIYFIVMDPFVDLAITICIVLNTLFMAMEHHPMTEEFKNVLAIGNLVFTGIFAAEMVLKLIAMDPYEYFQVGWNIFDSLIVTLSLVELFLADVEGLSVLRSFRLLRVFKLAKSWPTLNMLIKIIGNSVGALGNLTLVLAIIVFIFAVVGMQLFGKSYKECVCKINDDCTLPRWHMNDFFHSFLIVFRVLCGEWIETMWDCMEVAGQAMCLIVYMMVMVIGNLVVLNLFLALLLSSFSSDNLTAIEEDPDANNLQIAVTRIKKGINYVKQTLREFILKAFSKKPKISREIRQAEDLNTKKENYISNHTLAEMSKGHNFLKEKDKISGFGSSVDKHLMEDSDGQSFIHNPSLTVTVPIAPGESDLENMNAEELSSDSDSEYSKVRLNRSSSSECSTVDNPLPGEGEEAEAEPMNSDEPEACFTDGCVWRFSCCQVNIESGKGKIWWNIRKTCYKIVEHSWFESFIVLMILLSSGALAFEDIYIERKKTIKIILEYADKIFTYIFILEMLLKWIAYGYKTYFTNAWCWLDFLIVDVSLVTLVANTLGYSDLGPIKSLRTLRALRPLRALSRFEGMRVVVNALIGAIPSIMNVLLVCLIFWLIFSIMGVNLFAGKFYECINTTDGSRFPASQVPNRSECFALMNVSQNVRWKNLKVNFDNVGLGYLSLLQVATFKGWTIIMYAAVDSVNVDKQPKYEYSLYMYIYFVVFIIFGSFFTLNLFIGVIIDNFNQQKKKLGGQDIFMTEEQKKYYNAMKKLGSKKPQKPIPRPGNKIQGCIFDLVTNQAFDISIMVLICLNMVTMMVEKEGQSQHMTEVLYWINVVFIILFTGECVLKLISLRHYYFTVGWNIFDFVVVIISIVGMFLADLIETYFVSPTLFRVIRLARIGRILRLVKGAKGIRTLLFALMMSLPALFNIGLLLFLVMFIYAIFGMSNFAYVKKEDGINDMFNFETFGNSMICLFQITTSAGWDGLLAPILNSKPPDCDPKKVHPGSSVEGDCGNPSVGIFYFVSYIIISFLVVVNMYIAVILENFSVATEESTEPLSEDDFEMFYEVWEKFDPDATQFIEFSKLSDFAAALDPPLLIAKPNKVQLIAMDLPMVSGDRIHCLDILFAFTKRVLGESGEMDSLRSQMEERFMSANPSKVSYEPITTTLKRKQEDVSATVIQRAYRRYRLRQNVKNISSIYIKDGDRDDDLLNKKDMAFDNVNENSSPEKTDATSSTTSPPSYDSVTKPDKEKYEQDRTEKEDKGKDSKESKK
Sequence (Q07699 19-218 partner): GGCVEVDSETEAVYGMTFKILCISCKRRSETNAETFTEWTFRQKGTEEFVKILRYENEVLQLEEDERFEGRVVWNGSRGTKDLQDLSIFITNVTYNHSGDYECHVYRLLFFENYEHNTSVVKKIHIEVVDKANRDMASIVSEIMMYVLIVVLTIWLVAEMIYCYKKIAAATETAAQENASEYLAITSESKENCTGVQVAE

Q: For `CS(=O)(=O)NC(=O)c1cc(C2CC2)c(O[C@@H]2CCCN(c3cc(Cl)cc(Cl)c3)C2)cc1F` [Example 44, (R)-5-cyclopropyl-4-((1-(3,5-dichlorophenyl)piperidin-3-yl)oxy)-2-fluoro-N-(methylsulfonyl)benzamide], which IC50 is on record?
A: The IC50 was 3.6 nM.

Q: How did the IC50 turn out when `O=C(NS(=O)(=O)N1CCC1)c1cc(C2CC2)c(O[C@@H]2CCCN(Cc3ccc(F)cc3F)C2)cc1F` [Example 8, (R)—N-(azetidin-1-ylsulfonyl)-5-cyclopropyl-4-((1-(2,4-difluorobenzyl)-piperidin-3-yl)oxy)-2-fluorobenzamide] was run?
A: The IC50 was 8.1 nM.

Q: For `CS(=O)(=O)NC(=O)c1cc(C2CC2)c(OCC2CCN(Cc3cc(Cl)cc(C#N)c3)CC2)cc1F` [Example 590, 4-((1-(3-chloro-5-cyanobenzyl)piperidin-4-yl)methoxy)-5-cyclopropyl-2-fluoro-N-(methylsulfonyl)benzamide], which IC50 is on record?
A: The IC50 was 26 nM.

Q: Which IC50 does the source give for `O=C(NS(=O)(=O)N1CCC1)c1cc(C2CC2)c(O[C@@H]2CCCN(Cc3ccccc3Cl)C2)cc1F` [Example 25, (R)—N-(azetidin-1-ylsulfonyl)-4-((1-(2-chlorobenzyl)piperidin-3-yl)oxy)-5-cyclopropyl-2-fluorobenzamide] here?
A: The IC50 was 3.2 nM.

Q: With `CS(=O)(=O)NC(=O)c1cc(C2CC2)c(OCC2CN([C@@H](c3ccccc3)c3ccc(C#N)cc3)C2)cc1F` [Example 110, (S)-4-((1-((4-Cyanophenyl)(phenyl)methyl)azetidin-3-yl)methoxy)-5-cyclopropyl-2-fluoro-N-(methylsulfonyl)benzamide] as the compound, how does the IC50 read?
A: Its IC50 is 41.1 nM.

same assay, conditions: read-out: Ligand Binding Assay; 100 pM [3H]compound, membranes with hNav1.7 and β1 subunit, 18 h, room temperature

Q: With `CS(=O)(=O)NC(=O)c1cc(C2CC2)c(OC[C@@H]2C[C@H]3CC[C@@H](C2)N3Cc2cc(C(F)(F)F)cc(Cl)c2F)cc1F` [Example 398, 4-(((1R,3S,5S)-8-(3-chloro-2-fluoro-5-(trifluoromethyl)benzyl)-8-azabicyclo[3.2.1]octan-3-yl)methoxy)-5-cyclopropyl-2-fluoro-N-(methylsulfonyl)benzamide, trifluoroacetic acid salt] as the compound, how does the IC50 read?
A: Its IC50 is 5.1 nM.

Q: Which IC50 does the source give for `CCS(=O)(=O)NC(=O)c1cc(C2CC2)c(OCC2CCN([C@@H](c3cc(Cl)cc(Cl)c3)C(F)F)CC2)cc1F` [Example 226, (S)-5-cyclopropyl-4-((1-(1-(3,5-dichlorophenyl)-2,2-difluoroethyl)piperidin-4-yl)methoxy)-N-(ethylsulfonyl)-2-fluorobenzamide] here?
A: The IC50 was 12 nM.

Q: How did the IC50 turn out when `CS(=O)(=O)NC(=O)c1cc(C2CC2)c(OCC2CN(C(c3ccccc3)c3ccc(C(F)(F)F)cc3)C2)cc1F` (centres unmarked) [Example 131, 5-Cyclopropyl-2-fluoro-N-(methylsulfonyl)-4-((1-(phenyl(4-(trifluoromethyl)phenyl)methyl)-azetidin-3-yl)methoxy)benzamide] was run?
A: Its IC50 is 2.99 nM.

Q: With `O=C(NS(=O)(=O)C1CC1)c1cc(C2CC2)c(OCC2CCN(C(=O)c3ccc(Cl)cc3Cl)CC2)cc1F` [Example 258, 5-Cyclopropyl-N-(cyclopropylsulfonyl)-4-((1-(2,4-dichlorobenzoyl)piperidin-4-yl)methoxy)-2-fluorobenzamide] as the compound, how does the IC50 read?
A: Its IC50 is 65 nM.

Q: With `CS(=O)(=O)NC(=O)c1cc(C2CC2)c(OCC2CCN(Cc3ccccc3)CC2)cc1F` [Example 87, 4-((1-Benzylpiperidin-4-yl)methoxy)-5-cyclopropyl-2-fluoro-N-(methylsulfonyl)benzamide] as the compound, how does the IC50 read?
A: The IC50 was 278 nM.

Q: Which IC50 does the source give for `C[C@@H]1CC[C@@H](Oc2cc(F)c(C(=O)NS(C)(=O)=O)cc2C2CC2)CN1Cc1ccc(F)cc1Cl` [Example 52] here?
A: The IC50 was under 1.6 nM.

Q: For `CS(=O)(=O)NC(=O)c1cc(C2CC2)c(O[C@@H]2CCCN(Cc3cc(C(F)(F)F)cc(Cl)c3F)C2)cc1F` [Example 311, (R)-4-((1-(3-chloro-2-fluoro-5-(trifluoromethyl)benzyl)piperidin-3-yl)oxy)-5-cyclopropyl-2-fluoro-N-(methylsulfonyl)benzamide], which IC50 is on record?
A: Its IC50 is 2.9 nM.

Q: For `C[C@H](c1ccc(F)cc1)N1CCC[C@@H](Oc2cc(F)c(C(=O)NS(C)(=O)=O)cc2C2CC2)C1` [Example 316, 5-cyclopropyl-2-fluoro-4-(((R)-1-((R)-1-(4-fluorophenyl)ethyl)piperidin-3-yl)oxy)-N-(methylsulfonyl)benzamide], which IC50 is on record?
A: The IC50 was 37.2 nM.

Q: How did the IC50 turn out when `CS(=O)(=O)NC(=O)c1cc(C2CC2)c(CN2CCC(OCc3ccc(F)cc3Cl)CC2)cc1F` [Example 478, 4-((4-((2-chloro-4-fluorobenzyl)oxy)piperidin-1-yl)methyl)-5-cyclopropyl-2-fluoro-N-(methylsulfonyl)benzamide, trifluoroacetic acid salt] was run?
A: Its IC50 is 38.1 nM.

Q: `CC1(COc2cc(F)c(C(=O)NS(C)(=O)=O)cc2C2CC2)CN(Cc2cc(Cl)cc(Cl)c2)C1` [Example 77] was tested. Which IC50 did it give?
A: Its IC50 is 6.4 nM.

Q: With `CS(=O)(=O)NC(=O)c1cc(C2CC2)c(OCC2CN([C@@H](c3ccccc3)c3ccccn3)C2)cc1F` [Example 118, (S)-5-Cyclopropyl-2-fluoro-N-(methylsulfonyl)-4-((1-(phenyl(pyridin-2-yl)methyl)azetidin-3-yl)methoxy)benzamide] as the compound, how does the IC50 read?
A: Its IC50 is 417 nM.

Q: With `CS(=O)(=O)NC(=O)c1cc(C2CC2)c(OCC2(F)CN(Cc3ccccc3)C2)cc1F` [Example 66, 4-((1-benzyl-3-fluoroazetidin-3-yl)methoxy)-5-cyclopropyl-2-fluoro-N-(methylsulfonyl)benzamide] as the compound, how does the IC50 read?
A: Its IC50 is 91 nM.

Q: For `CC1(COc2cc(F)c(C(=O)NS(C)(=O)=O)cc2C2CC2)CCN(C(=O)c2cc(Cl)ccc2Cl)CC1` [Example 578, 5-cyclopropyl-4-((1-(2,5-dichlorobenzoyl)-4-methylpiperidin-4-yl)methoxy)-2-fluoro-N-(methylsulfonyl)benzamide], which IC50 is on record?
A: The IC50 was 180 nM.

Q: `CC1(COc2cc(F)c(C(=O)NS(C)(=O)=O)cc2C2CC2)CCN(Cc2ccc(F)cc2C(F)(F)F)CC1` [Example 130, 5-cyclopropyl-2-fluoro-4-((1-(4-fluoro-2-(trifluoromethyl)benzyl)-4-methylpiperidin-4-yl)methoxy)-N-(methylsulfonyl)benzamide] was tested. Which IC50 did it give?
A: Its IC50 is 3.5 nM.

Q: With `CS(=O)(=O)NC(=O)c1cc(C2CC2)c(OCC2CN(Cc3ccc(Cl)c(F)c3)C2)cc1F` [Example 133, 4-((1-(4-Chloro-3-fluorobenzyl)azetidin-3-yl)methoxy)-5-cyclopropyl-2-fluoro-N-(methylsulfonyl)benzamide] as the compound, how does the IC50 read?
A: Its IC50 is 118 nM.

Q: Which IC50 does the source give for `CS(=O)(=O)NC(=O)c1cc(C2CC2)c(OCC2CCN(Cc3ccc(C(F)(F)F)c(Cl)c3)CC2)cc1F` [Example 220, 4-((1-(3-Chloro-4-(trifluoromethyl)benzyl)piperidin-4-yl)methoxy)-5-cyclopropyl-2-fluoro-N-(methylsulfonyl)benzamide] here?
A: Its IC50 is 17 nM.

Q: For `CS(=O)(=O)NC(=O)c1cc(C2CC2)c(OCC2CN([C@H](c3ccccc3)c3ccccc3Cl)C2)cc1F` [Example 151, (R)-4-((1-((2-Chlorophenyl)(phenyl)methyl)azetidin-3-yl)methoxy)-5-cyclopropyl-2-fluoro-N-(methylsulfonyl)benzamide], which IC50 is on record?
A: The IC50 was 9.94 nM.

Q: With `CS(=O)(=O)NC(=O)c1cc(C2CC2)c(OCC2CCN([C@H](CO)c3cc(Cl)cc(Cl)c3)CC2)cc1F` [Example 267, (S)-5-cyclopropyl-4-((1-(1-(3,5-dichlorophenyl)-2-hydroxyethyl)piperidin-4-yl)methoxy)-2-fluoro-N-(methylsulfonyl)benzamide] as the compound, how does the IC50 read?
A: The IC50 was 47 nM.

Q: Which IC50 does the source give for `CS(=O)(=O)NC(=O)c1cc(C2CC2)c(O[C@H]2CN(Cc3ccc(F)cc3Cl)CC(F)(F)C2)cc1F` [Example 445, (R)-4-((1-(2-chloro-4-fluorobenzyl)-5,5-difluoropiperidin-3-yl)oxy)-5-cyclopropyl-2-fluoro-N-(methylsulfonyl)benzamide] here?
A: Its IC50 is 6.1 nM.

Q: How did the IC50 turn out when `CS(=O)(=O)NC(=O)c1cc(C2CC2)c(OCC2CCN(C(=O)c3cccc(Cl)c3)CC2)cc1F` [Example 195, 4-((1-(3-Chlorobenzoyl)piperidin-4-yl)methoxy)-5-cyclopropyl-2-fluoro-N-(methylsulfonyl)benzamide] was run?
A: Its IC50 is 350 nM.

Q: For `CS(=O)(=O)NC(=O)c1cc(C2CC2)c(OCC2CCN(Cc3ccc(C(F)(F)F)c(F)c3)CC2)cc1F` [Example 247, 5-cyclopropyl-2-fluoro-4-((1-(3-fluoro-4-(trifluoromethyl)benzyl)piperidin-4-yl)methoxy)-N-(methylsulfonyl)benzamide], which IC50 is on record?
A: The IC50 was 8.9 nM.

Q: With `C[C@@H](c1cc(F)cc(C(F)(F)F)c1)N1CCC(C)(COc2cc(F)c(C(=O)NS(C)(=O)=O)cc2C2CC2)CC1` (single isomer, unassigned) [Example 171] as the compound, how does the IC50 read?
A: The IC50 was 5 nM.

Q: With `O=C(NS(=O)(=O)C1CC1)c1cc(C2CC2)c(CN2CCO[C@H](Cc3ccc(F)cc3Cl)C2)cc1F` [Example 467, (R)-4-((2-(2-chloro-4-fluorobenzyl)morpholino)methyl)-5-cyclopropyl-N-(cyclopropylsulfonyl)-2-fluorobenzamide, trifluoroacetic acid salt] as the compound, how does the IC50 read?
A: The IC50 was 4.3 nM.

Q: `CC(C)Oc1ncc([C@H](c2ccccc2)N2CC(COc3cc(F)c(C(=O)NS(C)(=O)=O)cc3C3CC3)C2)cc1Cl` [Example 114, (S)-4-((1-((5-Chloro-6-isopropoxypyridin-3-yl)(phenyl)methyl)azetidin-3-yl)methoxy)-5-cyclopropyl-2-fluoro-N-(methylsulfonyl)benzamide] was tested. Which IC50 did it give?
A: The IC50 was 7.27 nM.

Q: With `CS(=O)(=O)NC(=O)c1cc(C2CC2)c(OCC2CCN(Cc3ccc(Br)cc3C(F)(F)F)CC2)cc1F` [Example 585, 4-((1-(4-bromo-2-(trifluoromethyl)benzyl)piperidin-4-yl)methoxy)-5-cyclopropyl-2-fluoro-N-(methylsulfonyl)benzamide] as the compound, how does the IC50 read?
A: The IC50 was 3.5 nM.

Q: `CS(=O)(=O)NC(=O)c1cc(C2CC2)c(OCC2CN([C@@H](c3ccccc3)c3ccc(F)cc3)C2)cc1F` [Example 144, (S)-5-Cyclopropyl-2-fluoro-4-((1-((4-fluorophenyl)(phenyl)methyl)azetidin-3-yl)methoxy)-N-(methylsulfonyl)benzamide] was tested. Which IC50 did it give?
A: Its IC50 is 9.15 nM.

Q: How did the IC50 turn out when `COCC(c1cc(Cl)cc(Cl)c1)N1CCC(COc2cc(F)c(C(=O)NS(C)(=O)=O)cc2C2CC2)CC1` (centres unmarked) [Example 90, 5-Cyclopropyl-4-((1-(1-(3,5-dichlorophenyl)-2-methoxyethyl)piperidin-4-yl)methoxy)-2-fluoro-N-(methylsulfonyl)benzamide] was run?
A: The IC50 was 2.87 nM.
